The values below come from BindingDB's records for patent US11787766 (Shanghai Ennovabio Pharmaceuticals, 2023).

For the assay, the target named is Programmed cell death 1 ligand/protein 1 (Homo sapiens, UniProt Q9NZQ7). Nature of the assay: Homogeneous Time-Resolved Fluorescence (HTRF). From the text:
PD1/PD-L1 binding assay kit (Cisbio, Cat #63ADK000CPDEC) was used, which includes two proteins, Tag 1-PD-L1 and Tag 2-PD-1, and two antibodies, Anti-Tag1-Eu3+ and Anti-Tag2-XL 665. Assay principle: Anti-tag1-Eu3+ is the HTRF donor, and Anti-Tag2-XL 665 is the HTRF acceptor. When Tag 1-PD-L1 and Tag 2-PD-1 interact, the added HTRF donor and the acceptor are close to each other. After the donor receives the excitation energy, it transfers part of the energy to the acceptor, thus producing 665 nm emission signal. When the compound is added to block the PD1/PD-L1 interaction, only 620 nm emission light was detected. The inhibitory effect of the compound was determined by analyzing the ratio of 665 nm/620 nm. Tag 1-PD-L1 was diluted with Diluent buffer (cat #62DLBDDF) to a working concentration of 10 nM, Tag 2-PD-1 was diluted with Diluent buffer to a working concentration of 500 nM, and Anti-Tag1-Eu3+ was diluted with detection buffer (cat #62DB1FDG) by 1:100, Anti-Tag2-XL 665 was diluted with detection buffer by 1:20, and the test compound was diluted with Diluent buffer to a final concentration of 2×. In a 384-well plate, 2 μL of compound was added to each well, and then 4 μL of Tag 1-PD-L1, 4 μL of Tag 2-PD-1 were added and incubated at room temperature for 15 minutes.
For orientation: TR-FRET usually uses a lanthanide donor and a delayed reading to cut background.

The structures appear in SMILES notation. pIC50: −log10 of the molar value.

Chain of Programmed cell death 1 ligand/protein 1 (Q9NZQ7 whole entry): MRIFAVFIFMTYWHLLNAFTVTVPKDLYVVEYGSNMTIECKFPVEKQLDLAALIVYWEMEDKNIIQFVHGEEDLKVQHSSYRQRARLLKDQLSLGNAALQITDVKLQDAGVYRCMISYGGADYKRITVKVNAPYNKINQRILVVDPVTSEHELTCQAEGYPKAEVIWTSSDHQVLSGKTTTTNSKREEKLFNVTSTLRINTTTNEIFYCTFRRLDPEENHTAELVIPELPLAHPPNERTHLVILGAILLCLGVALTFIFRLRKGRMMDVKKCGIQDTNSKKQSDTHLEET
Chain of Programmed cell death 1 ligand/protein 1 (Q15116 whole entry, further chain): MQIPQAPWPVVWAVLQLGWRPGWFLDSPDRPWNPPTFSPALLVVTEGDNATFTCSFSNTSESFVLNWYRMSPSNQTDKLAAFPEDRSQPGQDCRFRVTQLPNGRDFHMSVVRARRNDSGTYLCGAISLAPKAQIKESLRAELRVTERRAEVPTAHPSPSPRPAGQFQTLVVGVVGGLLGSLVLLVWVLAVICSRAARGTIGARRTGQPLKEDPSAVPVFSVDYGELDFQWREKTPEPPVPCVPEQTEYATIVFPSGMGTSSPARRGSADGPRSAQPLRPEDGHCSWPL

In the case of `COc1nc(OCc2cccc(-c3cccc(CO)c3C)c2C)ccc1CNCCNC(C)=O` [US11787766, Compound 2], the pIC50 is under 6.00.

Take `COc1nc(OCc2cccc(-c3cccc(CO)c3C)c2C)ccc1CN` [US11787766, Compound 3]: the pIC50 is under 6.00.

Take `COc1nc(OCc2cccc(-c3cccc(COc4ccc(C#N)c(OC)n4)c3C)c2C)ccc1C#N` [US11787766, Compound 5]: the pIC50 is under 6.00. Next, `COc1cc(OCc2cccc(-c3cccc(CO)c3C)c2C)cc(OC)c1CN` [US11787766, Compound 11]: under 6.00; `COc1nc(OCc2cccc(-c3cccc(CN)c3C)c2)ccc1CN` [US11787766, Compound 16]: under 6.00. `COc1nc(OCc2cccc(-c3cccc(COc4ccc(CNCCNC(C)=O)c(OC)n4)c3C)c2C)ccc1C#N` [US11787766, Compound 17]: the pIC50 is under 6.00. Next, `COc1nc(OCc2cccc(-c3cccc(COc4ccc(CNCCNC(C)=O)c(OC)n4)c3Cl)c2C)ccc1CNCCNC(C)=O` [US11787766, Compound 30]: over 8.00; `COc1nc(OCc2cccc(-c3cccc(COc4ccc(CN5C[C@H](O)C[C@H]5CO)c(OC)n4)c3Cl)c2Cl)ccc1CN1C[C@H](O)C[C@H]1CO` [US11787766, Compound 69]: over 8.00.

In general, pIC50 refers to the IC50 on a negative log10 scale, so that one unit is a factor of ten. Low values mean a high IC50, high ones a low IC50.
